The subject of series [1] is HIV-1. Briefly: Anti-viral activity: syncytium formation (Sup T1) or reverse transcriptase assay (H9). Type of series: cell-based. The following applies: Human immunodeficiency virus 1, SUP-T1. How it is done:
The anti-viral activity of the compounds of the present invention was determined by measuring the concentration of the compounds that inhibits the proliferation of HIV by 50%(IC50) through a survey for syncytium formation or reverse transcriptase assay.
1×10^5 cells of each of H9(ATCC HTB 176) and Sup T1 cell lines were added to the wells of a 24-well microtiter plate and various concentrations so the compounds of the present invention were added thereto. 200 TCID50 (200-fold of 50% tissue culture infection dose) of HIV-1 inoculum and rpmi-1640 medium(Sigma Chemical Co., U.S.A) were added successively to the wells and the plate was incubated at 37° C. In case of Sup T1, the number of syncytium formed was investigated after 3 to 9 days. IC50 of each compound was determined by measuring the concentration of inhibitor that can reduce the number of syncytium by 50% compared with those formed in the same condition without the inhibitor.
In case of H9, three-quarters(3/4) of the culture medium in volume was refreshed every 3 days; and 6 ml of the culture fluid was centrifuged at 1000 rpm for 10 minutes. To 5 ml of the resulting supernatant were added 2.5 ml of 30% polyethyleneglycol(PEG, M.W. 6000-8000) and 0.4M NaCl. The resulting solution was allowed to stand at 0° C. overnight to precipitate virus particles. The solution was centrifuged at 2000 rpm for 45 minutes, the supernatant was discarded therefrom and the precipitate was diluted with 20 μl of a reverse transcriptase suspension buffer(50 mM tris-HCl, pH 7.5, 1 mM dithiothreitol, 20% glycerol, 0.25M KCl and 0.25% Triton X-100). The resulting suspension was stored in an Effendorf tube at -70° C. until used. A procedure of freezing said virus suspension for 2 minutes in dry ice and thawing same at 37° C. for 2 minutes was repeated three times and the resulting suspension was centrifuged at 4° C. The resulting supernatant was used in carrying out the reverse transcriptase assay.
10 μl of the said viral suspension was added to a solution of: 10 μl of buffer solution(250 mM tris-HCl, pH 7.5, 37.5 mM MgCl2, 0.25% triton X-100), 1.2 μl of 200 mM dithiothreitol, 5 μl of 10 μM oligo(dT)-poly(A)(Boeringer Manheim, 12-18 oligomer), 1 μl(1 μCi) of ^3 H-TTP(Thymidinetri-phosphate) and 23.6 μl of water; and the resulting mixture was placed at 37° C. After 1 hour, the mixture was poured onto a WHATMAN DEB1 filter and the filter was washed three times with 5 ml of 2×SSC buffer solution(17.53 g of sodium chloride, 8.82 g of sodium citrate, pH 7.0, 1 liter of water) for about 10 minutes each time and twice with 95% ethanol for 10 seconds. The filter was put onto aluminium foil and dried with an infra-red lamp. The amount of radioactivity was counted using a liquid scintillation counter. IC50 of each compound was determined by measuring the concentration of inhibitor that can reduce the activity of reverse transcriptase by 50%.

A short description of series [2]: Cytotoxicity in H9 or Sup T1 cells (trypan blue dye exclusion). The following applies: human. Type of series: cell-based. How it is done: To determine the cytotoxicity of the compounds of the present invention, 0.1 μM to 100 μM of the novel compounds were added to H9 cell or Sup T1 cell and the mixture was cultured on a rpmi-1640 medium at 37° C. The medium was refreshed every 3 days and the extent of cell proliferation was observed using Hemacytometer according to the trypan blue dye exclusion technique which is well known in the art. CT50 (i.e., concentration that causes death of cells by 50%) was determined. For reference, AZT(Burrows-Wellcome), A-75925 (Abbott, C2 symmetric compound) and Ro-31-8959(F. Hofmann-La Roche) were used as control compounds.

Series [3] has as its target T1, HIV-1 protease (Human immunodeficiency virus type 1 group M subtype B, UniProt P04585).
T1 construct: 2.6 nM of HIV-1 protease
Briefly: Assay for inhibitory effect on HIV protease (residual enzyme activity, HPLC of substrate cleavage). Type of series: biochemical. The following applies: for Ki / kinact: HIV-1 protease 2.6 nM; for Ki / kinact / kinact/KI: pH 5.5; for Ki: inhibition constant; for kinact: rate constant of covalent bond formation, read-out: kina (converted); for kinact/KI: second order rate constant, HIV-1 protease, read-out: kina /KI (converted). How it is done: The inhibitory effect on HIV protease of the compounds of the present invention was determined by the following method.
To a buffer solution comprising 50 mM sodium acetate, pH 5.5, 1 mM dithiothreitol(DTT), 1 mM ethylenediaminetetraacetate (EDTA), 0.75M ammonium sulfate, 0.2M sodium chloride and 0.1% NP40(NONIDET P-40; Sigma Chemical Co., U.S.A.), were added various concentrations of a compound selected from Compound Nos. 1 to 92 to prepare a preincubation solution. Inhibition reaction was started with the addition of 2.6 nM of HIV-1 protease to the preincubation solution. Each 10 μl of the reaction solution was taken at a given time interval and added to 80 μl of assay solution containing 100 μM of reaction substrate in the same buffer solution as above to assay for the residual enzyme activity. In this context, an oligopeptide(KM =20 μM) consisting of 11 amino acids, i.e., Ser-Ile-Ala-Glu-(p-NO2)-Phe-Leu-Val-Arg-Ala-Lys-His, was used as a reaction substrate, which oligopeptide was to be cleaved in two by the breakage of amide bond between (P--NO2)-Phe and Leu upon the attack of HIV protease. The reaction rate was determined by subjecting the substrate before the reaction and the product after the reaction to HPLC separation and then measuring the relative amount of the product, using the strong absorbance of (p--NO2)-Phe at 280 nm. The amount of reduction in enzyme activity according to the elapsed time were measured and the natural logarithmic values(ln) of the measured amounts were plotted against time to obtain a linear graph and kobs was calculated from the slope of the linear graph.
The inhibition constant was calculated according to the following equation: [formula] wherein: kobs is a rate constant indicating the rate of reduction in enzyme activity according to the elapsed time under the presence of a given concentration of inhibitor,
kina is a rate constant indicating the rate of chemical reaction forming covalent bond between an enzyme and an inhibitor in Michaelis-Menten complex,
KI is an inhibition constant indicating the dissociation rate of Michaelis-Menten complex into an enzyme and an inhibitor, and
[I] means the inhibitor concentration.
The above equation is applicable to an experiment carried out under the condition in which the concentration of inhibitor is far higher than that of enzyme(Steady State Kinetic). […] The inhibition constants KI and kina and second order rate constant kina /KI were obtained by inputting the value of [E]/([E]+[EI]+[EI']) into KINSIM/FITSIM program. FIG. 1 exemplifies a result of the experiment determining the binding ratio of enzymes and inhibitors, which result was obtained by reacting the enzyme and the inhibitor in various concentration ratios for a sufficient time period(at least for 30 minutes), and then plotting the relative activity of the remaining enzyme against [conc. of inhibitor]/[conc. of enzyme].

Setting [4] is: concentration that causes death of cells by 50%, H9 or Sup T1 cells, 37° C, read-out: CT50 (the source's name).

Like-named read-outs stand apart in the source and are kept apart here.

In turn, `CC(C)(C)NC(=O)[C@@H]1C[C@@H]2CCCC[C@@H]2CN1C[C@@H](O)[C@H](Cc1ccccc1)NC(=O)[C@H](CC(N)=O)NC(=O)c1ccc2ccccc2n1` [Ro-31-8959, reference compound] gave an IC50 in series [1] of 40 nM. The same compound returned a CC50 in series [2] (h9 or sup t1 cells) of more than 100000 nM.
For `CC[C@H](C)[C@H](NC(=O)C[C@@H]1O[C@@H]1[C@H](Cc1ccccc1)NC(=O)[C@H](CC(N)=O)NC(=O)c1ccc2ccccc2n1)C(=O)OC` [compound 2, N-[5-L-[[N-(2-quinolinecarbonyl)-L-asparaginyl]amino]-epoxy-6-phenyl-hexanoyl]-L-isoleucine methyl ester], in series [1], the IC50 worked out at 200 nM. Besides, in series [2] (setting [4]), the CC50 is more than 100000 nM. Also, in series [3], the Ki was 18 nM, the kinact was 0.00367 s⁻¹ and the kinact/KI was 200000 M⁻¹ s⁻¹.
On the same counts, the results for `CC[C@H](C)[C@H](NC(=O)C[C@@H]1O[C@@H]1[C@H](Cc1ccccc1)NC(=O)[C@H](CC(N)=O)NC(=O)COc1cccc2ccccc12)C(=O)OC` [compound 3] are 3000 nM, more than 100000 nM, 40 nM, 0.002 s⁻¹ and 50000 M⁻¹ s⁻¹.
The corresponding values for `CC[C@H](C)[C@H](NC(=O)C[C@@H]1O[C@@H]1[C@H](Cc1ccccc1)NC(=O)[C@H](CC(N)=O)NC(=O)c1ccc2ccccc2n1)C(=O)N[C@H](C(=O)OC)C(C)C` [compound 6] are 5000 nM, more than 100000 nM, 420 nM, 0.00217 s⁻¹ and 5170 M⁻¹ s⁻¹.
On the same counts, the results for `CC[C@H](C)[C@H](NC(=O)C[C@@H]1O[C@@H]1[C@H](Cc1ccccc1)NC(=O)[C@H](CC(N)=O)NC(=O)c1ccc2ccccc2n1)C(=O)NCc1ccccc1` [compound 8] are 7000 nM, more than 100000 nM, 60 nM, 0.002 s⁻¹ and 33300 M⁻¹ s⁻¹.
For `CC[C@H](C)[C@H](NC(=O)C[C@@H]1O[C@@H]1[C@H](Cc1ccccc1)NC(=O)[C@H](CC(N)=O)NC(=O)c1ccc2ccccc2n1)C(=O)NCc1ccccn1` [compound 9], it took 8000 nM to reach half-maximal inhibition in series [1] (IC50). In series [2] (setting [4]), the CC50 is more than 100000 nM. Further, in series [3], the affinity, expressed as Ki, was 55 nM; the kinact is 0.00183 s⁻¹; the kinact/KI is 33300 M⁻¹ s⁻¹.
As for `COC(=O)C(CCC(N)=O)NC(=O)C[C@@H]1O[C@@H]1[C@H](Cc1ccccc1)NC(=O)[C@H](CC(N)=O)NC(=O)c1ccc2ccccc2n1` (stereo partly shown) [compound 12], in series [1], the midpoint of inhibition, the IC50, lay at 7000 nM. In addition, in series [2] (setting [4]), the CC50 was more than 100000 nM. Also, in series [3], the Ki was found to be 370 nM, the kinact was 0.005 s⁻¹ and the kinact/KI was 13500 M⁻¹ s⁻¹.
The corresponding values for `COC(=O)C(CCC(N)=O)NC(=O)C[C@@H]1O[C@@H]1[C@H](Cc1ccccc1)NC(=O)[C@H](CC(N)=O)NC(=O)OCc1ccccc1` (stereo partly shown) [compound 13] are 10000 nM, more than 100000 nM, 520 nM, 0.00717 s⁻¹ and 13800 M⁻¹ s⁻¹.
With `COC(=O)C(Cc1ccccc1)NC(=O)C(CCC(N)=O)NC(=O)C[C@@H]1O[C@@H]1[C@H](Cc1ccccc1)NC(=O)[C@H](CC(N)=O)NC(=O)c1ccc2ccccc2n1` (stereo partly shown) [compound 14], it took 9000 nM to reach half-maximal inhibition in series [1] (IC50). In addition, the CC50 in series [2] (setting [4]) was more than 100000 nM. Moreover, in series [3], the Ki was found to be 350 nM, the kinact is 0.00417 s⁻¹ and the kinact/KI was 11800 M⁻¹ s⁻¹.
In the case of `CC(C)[C@H](NC(=O)C[C@@H]1O[C@@H]1[C@H](Cc1ccccc1)NC(=O)[C@H](CC(N)=O)NC(=O)c1ccc2ccccc2n1)C(=O)NCc1ccccn1` [compound 19], the IC50 in series [1] was determined as 5000 nM. The CC50 in series [2] (setting [4]) was more than 100000 nM. Besides, in series [3], the Ki is 81 nM, the kinact is 0.00367 s⁻¹ and the kinact/KI is 45000 M⁻¹ s⁻¹.
In the case of `CC(C)[C@H](NC(=O)N(C)Cc1ccccc1)C(=O)NC[C@@H]1O[C@@H]1[C@H](Cc1ccccc1)NC(=O)[C@@H](NC(=O)N(C)Cc1ccccc1)C(C)C` [compound 81, 4S-1,4-bis[N-[(N'-benzylmethylamino)carbonyl-L-valinyl]amino]-5-phenyl-(2S,3R)-(Z)-epoxypentane], in series [3], the inhibition constant (Ki) is more than 10000 nM.
Regarding `CC(C)[C@H](NC=O)C(=O)NC[C@@H]1O[C@@H]1[C@H](Cc1ccccc1)NC(=O)[C@H](CC(N)=O)NC(=O)c1ccc2ccccc2n1` [compound 88], in series [3], the affinity, expressed as Ki, was 850 nM; the kinact was 0.0367 s⁻¹; the kinact/KI was 43300 M⁻¹ s⁻¹.
For `CCC(C)[C@H](NC=O)C(=O)NC[C@@H]1O[C@@H]1[C@H](Cc1ccccc1)NC(=O)[C@H](CC(N)=O)NC(=O)c1ccc2ccccc2n1` (stereo partly shown) [compound 90], in series [3], the Ki is 140 nM, the kinact is 0.00667 s⁻¹ and the kinact/KI was 48300 M⁻¹ s⁻¹.
On the same counts, the results for `NC(=O)C[C@H](NC(=O)c1ccc2ccccc2n1)C(=O)N[C@@H](Cc1ccccc1)[C@H]1O[C@H]1CNC(=O)[C@@H](NC=O)c1ccccc1` [compound 91] are 1200 nM, 0.005 s⁻¹ and 4170 M⁻¹ s⁻¹.
The corresponding values for `NC(=O)C[C@H](NC(=O)c1ccc2ccccc2n1)C(=O)N[C@@H](Cc1ccccc1)[C@H]1O[C@H]1CNC(=O)[C@H](Cc1ccccc1)NC=O` [compound 92] are 1400 nM, 0.00333 s⁻¹ and 2330 M⁻¹ s⁻¹.
For “Ser-Ile-Ala-Glu-(p-NO2)-Phe-Leu-Val-Arg-Ala-Lys-His [reference compound]”, the Km in series [3] (oligopeptide substrate of 11 amino acids, read-out: KM of reaction substrate) came out at 20 µM.

For orientation: IC50 means the concentration needed to halve the response being measured. By Ki is commonly meant a measure of affinity in units of concentration, obtained from inhibition or displacement. As a reminder, the Km is the concentration of substrate that gives half-maximal velocity.

(Values after patent US5744621A, “Irreversible HIV protease inhibitors, intermediates, compositions and processes for the preparation thereof” (Lucky Limited., priority 1992, dated 1998).)
